Source: patent US10183040B2, “Method for regulation of lipid metabolism” (PROFEAT BIOTECHNOLOGY CO., LTD., priority 2014, dated 2019)

Experiment: Serum triacylglycerol, cholesterol, HDL and LDL assays of diabetes mice, Table 4 groups (FIG. 4A-4D)
Format: in vivo, db/db mice (C57BLKS/J-leprdb/leprdb)
Settings: 4 mg/kg/day, versus phosphate solution control
Method: (§1) FIG. 4A is a bar chart of the triacylglycerol assay of diabetes mice in accordance with the present invention, wherein the mice of control group are administered with phosphate buffer; the mice of treatment group are administered with 4 mg/kg/day composition A1; the mice of B01 group are administered with commercial 4 mg/kg/day ferrous glycine, and the mice of C01 group are administered with 4 mg/kg/day ferrous sulfate.
as §1, with “4B” for “4A”, “cholesterol” for “triacylglycerol”, “sulfate. […]” for “sulfate.”
The mice were daily and orally administered with the composition A1 at dosage of […] for 12 weeks. The body weights of the mice were measured every 3 days, and the serum biochemical values of the mice were measured every 4 weeks after orally administering with the composition A1. Triacylglycerol and cholesterol of the serum biochemical values were determined using a Biochem-Immuno Fully Autoanalyzer (Brea, Calif., USA) or a Chemistry Analyzer (Hitachi, Ltd., Japan). […]

Row | Compound | triacylglycerol
1 | ferrous sulfate [commercial ferrous sulfate] | effectively reduced
2 | NCC(=O)[O-].NCC(=O)[O-].[Fe+2] [commercial ferrous glycine, ferrous glycine] | effectively reduced
